# ChEMBL document CHEMBL5465560, “Selectivity Literature for EUbOPEN Chemogenomic Library” (2024)
# Columns and labels:
# [1] = biological target: T1, Serine/threonine-protein kinase ULK2 (Homo sapiens) (UniProt Q8IYT8); test: Selectivity interaction (KinomeScan (DiscoverX)) EUB0000666a ULK2; details: at 10 µM
# T1 sequence (whole entry): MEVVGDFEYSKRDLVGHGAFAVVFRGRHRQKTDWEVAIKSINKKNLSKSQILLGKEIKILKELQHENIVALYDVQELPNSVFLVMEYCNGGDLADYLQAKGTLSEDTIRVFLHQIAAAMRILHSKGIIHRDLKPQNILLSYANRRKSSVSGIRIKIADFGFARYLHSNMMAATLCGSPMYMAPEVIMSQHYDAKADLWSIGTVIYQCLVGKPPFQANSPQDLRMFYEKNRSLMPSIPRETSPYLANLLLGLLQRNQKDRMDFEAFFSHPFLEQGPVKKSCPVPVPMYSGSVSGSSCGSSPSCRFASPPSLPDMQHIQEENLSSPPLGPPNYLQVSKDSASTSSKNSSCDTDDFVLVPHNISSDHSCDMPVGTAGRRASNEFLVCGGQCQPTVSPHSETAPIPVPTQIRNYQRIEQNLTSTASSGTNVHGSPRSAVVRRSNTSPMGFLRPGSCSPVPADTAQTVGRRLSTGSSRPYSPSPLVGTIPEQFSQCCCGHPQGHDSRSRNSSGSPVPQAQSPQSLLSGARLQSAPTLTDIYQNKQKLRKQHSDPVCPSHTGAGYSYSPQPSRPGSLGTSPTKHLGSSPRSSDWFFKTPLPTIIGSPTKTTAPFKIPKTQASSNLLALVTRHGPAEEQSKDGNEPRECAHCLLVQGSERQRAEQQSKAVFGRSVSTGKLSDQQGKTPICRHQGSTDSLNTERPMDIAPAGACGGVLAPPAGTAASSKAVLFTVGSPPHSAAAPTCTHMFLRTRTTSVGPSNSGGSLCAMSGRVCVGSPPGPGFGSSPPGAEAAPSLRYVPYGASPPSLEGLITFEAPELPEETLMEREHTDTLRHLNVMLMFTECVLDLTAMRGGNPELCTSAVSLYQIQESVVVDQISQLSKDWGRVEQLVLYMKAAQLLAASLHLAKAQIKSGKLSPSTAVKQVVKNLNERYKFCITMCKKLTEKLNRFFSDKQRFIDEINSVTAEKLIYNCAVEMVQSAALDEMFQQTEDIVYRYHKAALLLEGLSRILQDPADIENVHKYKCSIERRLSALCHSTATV
# [2] = biological target: T2, Receptor-interacting serine/threonine-protein kinase 4 (Homo sapiens) (UniProt P57078); test: Selectivity interaction (KinomeScan (DiscoverX)) EUB0001079a RIPK4; details: at 1 µM
# T2 sequence (whole entry): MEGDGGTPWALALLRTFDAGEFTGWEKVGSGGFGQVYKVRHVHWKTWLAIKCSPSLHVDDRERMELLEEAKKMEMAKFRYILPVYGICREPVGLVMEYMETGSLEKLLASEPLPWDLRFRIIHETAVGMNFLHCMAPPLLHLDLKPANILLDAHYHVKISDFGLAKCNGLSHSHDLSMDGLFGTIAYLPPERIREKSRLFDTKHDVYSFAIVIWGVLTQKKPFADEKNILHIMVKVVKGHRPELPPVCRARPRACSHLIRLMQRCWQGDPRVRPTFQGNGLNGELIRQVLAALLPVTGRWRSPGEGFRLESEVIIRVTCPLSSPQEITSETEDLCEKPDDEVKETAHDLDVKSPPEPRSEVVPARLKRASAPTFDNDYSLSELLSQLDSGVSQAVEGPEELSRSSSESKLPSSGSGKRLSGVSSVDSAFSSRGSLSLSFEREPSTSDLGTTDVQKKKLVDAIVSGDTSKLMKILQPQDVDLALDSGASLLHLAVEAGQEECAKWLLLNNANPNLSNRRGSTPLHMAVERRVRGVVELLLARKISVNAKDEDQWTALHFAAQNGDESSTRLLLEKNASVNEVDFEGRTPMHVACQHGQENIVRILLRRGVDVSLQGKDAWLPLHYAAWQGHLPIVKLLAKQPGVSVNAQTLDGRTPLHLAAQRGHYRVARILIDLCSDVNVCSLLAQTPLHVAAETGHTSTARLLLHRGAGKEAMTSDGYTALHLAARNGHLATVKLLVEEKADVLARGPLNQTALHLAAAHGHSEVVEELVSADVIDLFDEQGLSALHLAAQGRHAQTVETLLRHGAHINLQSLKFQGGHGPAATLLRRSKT
# [3] = biological target: T3, Inhibitor of nuclear factor kappa-B kinase subunit beta (Homo sapiens) (UniProt O14920); test: Selectivity interaction (KinomeScan (DiscoverX)) EUB0001079a IKBKB; details: at 1 µM
# T3 sequence (whole entry): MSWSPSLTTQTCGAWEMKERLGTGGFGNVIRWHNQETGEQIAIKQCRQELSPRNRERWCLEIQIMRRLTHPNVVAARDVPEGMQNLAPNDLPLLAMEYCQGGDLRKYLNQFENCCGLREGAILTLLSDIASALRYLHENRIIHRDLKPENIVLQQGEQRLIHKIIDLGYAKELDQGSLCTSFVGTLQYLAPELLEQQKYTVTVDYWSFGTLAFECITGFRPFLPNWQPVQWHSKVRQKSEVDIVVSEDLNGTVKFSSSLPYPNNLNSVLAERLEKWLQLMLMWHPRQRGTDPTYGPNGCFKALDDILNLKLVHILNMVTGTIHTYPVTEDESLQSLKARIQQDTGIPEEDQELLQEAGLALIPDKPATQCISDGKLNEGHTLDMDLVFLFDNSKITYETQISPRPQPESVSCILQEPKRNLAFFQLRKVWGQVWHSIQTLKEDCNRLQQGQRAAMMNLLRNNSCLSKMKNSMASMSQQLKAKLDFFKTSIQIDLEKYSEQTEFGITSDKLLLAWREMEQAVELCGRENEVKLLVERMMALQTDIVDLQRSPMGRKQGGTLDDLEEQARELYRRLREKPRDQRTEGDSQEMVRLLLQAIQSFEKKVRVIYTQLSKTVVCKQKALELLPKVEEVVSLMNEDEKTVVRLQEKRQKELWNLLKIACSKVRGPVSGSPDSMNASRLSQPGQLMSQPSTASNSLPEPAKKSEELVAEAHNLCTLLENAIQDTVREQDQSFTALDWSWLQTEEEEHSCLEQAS
# [4] = biological target: T4, Testis-specific serine/threonine-protein kinase 3 (Homo sapiens) (UniProt Q96PN8); test: Selectivity interaction (Kinase panel (Invitrogen)) EUB0000639a TSSK3; details: at 200 nM
# T4 sequence (whole entry): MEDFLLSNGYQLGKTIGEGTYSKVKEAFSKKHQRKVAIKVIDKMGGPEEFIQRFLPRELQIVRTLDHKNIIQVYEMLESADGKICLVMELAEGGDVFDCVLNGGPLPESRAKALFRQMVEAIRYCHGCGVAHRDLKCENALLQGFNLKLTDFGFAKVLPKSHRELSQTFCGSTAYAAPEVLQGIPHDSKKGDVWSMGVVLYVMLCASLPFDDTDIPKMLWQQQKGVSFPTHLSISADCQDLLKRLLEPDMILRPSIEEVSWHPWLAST
smiles,measurement,setting,value
O=C(NOC[C@H](O)CO)c1ccc(F)c(F)c1Nc1ccc(I)cc1F,% of control,[1],97%
Nc1cnc(N2CCc3cc(S(=O)(=O)Nc4c(F)cc(Cl)cc4F)cc(N4CCCC4=O)c32)nc1 [TP-020n],% of control,[2],76%
same,% of control,[3],96%
CC[C@@H]1[C@H](F)C(=O)N[C@@H]1COc1nccc2cc(C(N)=O)c(OC)cc12 [ZIMLOVISERTIB],% of inhibition,[4],16.3%
